Assay results from a melting point compilation (Tetko et al.; mined from patent text by program, amines drawn as free bases though some values may be those of a salt).

Compared with `CCCCNC(=O)Nc1ccc(OCC2CC2)cc1C(=O)NCC1CCN(C(c2ccccc2)c2ccccc2)CC1`, `O=C(NO)[C@H](CNS(=O)(=O)c1ccc(OCc2ccccc2)cc1)N1CCCC1` is lower in melting point: 190 to 192 °C for the first, 186 °C for the second.

First: CNC(=S)C1=CC(CF)(CF)Oc2ccc(C(F)(F)F)cc21
Second: FC(F)(F)c1cccc(Nc2ccccc2-c2n[nH]c(=S)s2)c1
The melting point of the first is higher: 145 to 147 °C for the first, 140 to 142 °C for the second.

Compared with `CSC(=Nc1nc(C)cc(C)n1)NS(=O)(=O)c1ccccc1-c1ccccc1`, `CN(C)C(=O)c1nc(-c2ccccc2)nc2[nH]c3ccccc3c12` is higher in melting point: 154 to 157 °C for the first, 218 to 219 °C for the second.

First: N=C(N)Nc1nc(CCCCC(=N)NS(N)(=O)=O)cs1
Second: CC(C)c1nc(CCOC(=O)N[C@H](C(=O)N[C@@H](Cc2ccccc2)[C@@H](O)C[C@H](Cc2ccccc2)NC(=O)OCc2cncs2)C(C)C)cs1
The melting point of the first is lower: 156 to 157 °C for the first, 159 to 160 °C for the second.

Compared with `Cn1c2ccccc2c2sc3c(C=O)cccc3c21`, `O=c1oc(=O)n(CCc2ccccc2)c2ncccc12` is higher in melting point: 128 to 130 °C for the first, 147 to 149 °C for the second.

First: CC1(CO)CCN(c2ccc(C#N)c3ccccc23)CC1
Second: O=C(NC1=CCN(CCc2ccccc2)CC1)c1ccccc1
The melting point of the first is higher: 136 to 137 °C for the first, 115 to 117 °C for the second.

Compared with `C=CCNC(=O)N1CC(OCc2ccc(Cl)c(Cl)c2)C1`, `OC(CCCn1ccnc1)c1ccc(Cl)cc1Cl` (configuration not stated) is higher in melting point: 88 to 89 °C for the first, 91.5 to 94 °C for the second.

Compared with `COc1ccc2[nH]cc(C3CCC(=O)CC3)c2c1`, `O[C@H](COc1cccc2[nH]ccc12)CN1CCC(c2c[nH]c3cc(Cl)ccc23)CC1` is lower in melting point: 103 to 106 °C for the first, 90 to 95 °C for the second.

Compared with `NS(=O)(=O)c1cnc(C2CC2=O)s1` (configuration not stated), `COS(=O)(=O)CS(C)(=O)=O` is lower in melting point: 148 to 149 °C for the first, 101 to 104 °C for the second.

First: COC(=O)C=C(Nc1coc2cc(OC)ccc2c1=O)C(=O)OC
Second: COc1ccc(C(=O)c2ccc(NC(C)=O)cc2)cc1
The melting point of the first is lower: 134 to 138 °C for the first, 160 to 162 °C for the second.

First: O=S1(=O)c2ccccc2N(c2ccccn2)c2ccccc21
Second: CN1C(=O)[C@H](NC(=O)/C=C/c2cccc(Cl)c2)N=C(c2ccccc2)c2ccccc21
The melting point of the first is lower: 184 to 188 °C for the first, 229 to 231 °C for the second.

First: CCCCN1CCC(C(=O)NO)(S(=O)(=O)c2ccc(OC)cc2)CC1
Second: CCCc1c(OCCCS(=O)(=O)c2ccc(CC(=O)O)cn2)ccc(C(C)=O)c1O
The melting point of the first is lower: 75 °C for the first, 154 to 156 °C for the second.

First: O=C(Nc1ccccc1)OCCCCCCCCCCC=C(F)F
Second: CC(=O)C(C(C)=O)C(=O)Nc1ccccc1
The melting point of the first is lower: 54 to 56 °C for the first, 119 to 121 °C for the second.

First: O=C(O)COc1ccc(C(=NO)c2ccccc2F)c(Cl)c1Cl
Second: O=C(O)Cc1c(-c2ccccc2)c2cc(Cl)c(Cl)cc2oc1=O
The melting point of the first is lower: 91 to 96 °C for the first, 222 to 223 °C for the second.

First: CC(C(=S)NCN1CCOCC1)c1ccccn1 (configuration not stated)
Second: Cc1ncc(CN2CCc3ccccc3C2)c(N)n1
The melting point of the first is lower: 69 °C for the first, 150 to 153 °C for the second.

First: COc1ccc(C(=O)Nc2ccc(-c3ccc(-c4noc(C)n4)cc3C)cc2)cc1CCCN(C)C
Second: CCOc1cc(-c2cccc(C(=O)NCc3cccc4c3C(=O)N(C3CCC(=O)NC3=O)C4=O)n2)ccc1OC (configuration not stated)
The melting point of the first is lower: 163 to 165 °C for the first, 196 to 198 °C for the second.

First: COc1ccc(C(=O)Nc2cccc(C(=O)O)c2)c2c1OCCO2
Second: O=Cc1c(O)cccc1OCc1cccc(C(=O)O)c1
The melting point of the first is higher: 283 to 284 °C for the first, 209 to 211 °C for the second.

First: Cc1cc(=O)n2cccc(OCc3ccccc3)c2n1
Second: NC(=O)Cc1nc(-c2ccc(Cl)cc2)sc1-c1ccccc1
The melting point of the first is lower: 110 to 112 °C for the first, 202 to 203 °C for the second.

First: CCOC(=O)C1=C(c2ccc(-n3c(C)nc4cnccc43)cc2)NC(C)=C(C(=O)OCCC#N)C1c1ccccc1Cl (configuration not stated)
Second: CC(=O)NCCC(=O)Nc1cccc(-c2cc(-c3ccc(Cl)cc3O)nc(NC(=O)c3cccs3)c2C#N)c1
The melting point of the first is lower: 177 to 179 °C for the first, 209 to 210 °C for the second.

First: CCc1c[nH]c2c3c(ccc12)OCC3
Second: CCOC(=O)c1cnn(-c2ccc(OCC3CC3)c(C#N)c2)c1
The melting point of the first is lower: 91 to 92.5 °C for the first, 147 to 149 °C for the second.

Compared with `CC(C)N1C(=O)C(C)(C)N=C(c2ccccc2Cl)c2cc([N+](=O)[O-])ccc21`, `O=C1C2CCCC2=Nc2ccccc2N1Cc1ccc([N+](=O)[O-])cc1` (configuration not stated) is higher in melting point: 169 to 170 °C for the first, 185 to 188 °C for the second.

First: CCOc1ccc(CC2NCCc3cc(OC(C)C)c(OC(C)C)cc32)cc1OCC (configuration not stated)
Second: COc1cc(C(=O)N(C(C)C)C2CCCCC2)ccc1Cn1cccc2nc(C)nc1-2
The melting point of the first is lower: 76 to 80 °C for the first, 218 to 221 °C for the second.

First: Cc1ccc(C(NCC(=O)Nc2c(C(C)C)cccc2C(C)C)c2ccccc2)cc1 (configuration not stated)
Second: O=C1NCCc2c(-c3cccc(-c4ccccc4)c3)[nH]c3cccc1c23
The melting point of the first is higher: 165 to 166 °C for the first, 160 to 163 °C for the second.

First: c1ccc2c(c1)OC[C@H](CN1CCC(CNc3nc4cccnc4s3)CC1)O2
Second: O=C1c2ccccc2C(=O)N1CCCOc1cccc2c(N3CCCCC3)nccc12
The melting point of the first is higher: 160 °C for the first, 146 to 147 °C for the second.

`O=C(O)CCC(NC(=O)C=Cc1ccco1)C(=O)O` (configuration not stated) and `O=C(/C=C/C=C/c1ccccc1)NCCCCC(=O)NO` cannot be ordered by melting point: 166 to 170 °C for the first, 168 to 170 °C for the second.

First: NC(=O)c1c(N)cccc1OCCO
Second: CC(=O)Nc1ccc(CCC(=O)O)cc1
The melting point of the first is higher: 149 to 151 °C for the first, 127 to 138 °C for the second.

First: CCCCC1(CCCC)c2cc(Br)ccc2-c2ccc(N(c3ccccc3)c3ccccc3)cc21
Second: COc1ccc(C2Sc3c(ccc4ccccc34)N(CCN(C)C)C(=O)C2OC(=O)c2ccccc2O)cc1 (configuration not stated)
The melting point of the first is lower: 116 to 118 °C for the first, 150 to 151 °C for the second.

Compared with `CCC1(O)CC(OC2CC(N(C)C)C(OC3CC(O)C(O)C(C)O3)C(C)O2)c2c(cc3c(c2O)C(=O)c2c(O)ccc(O)c2C3=O)C1C(=O)OC` (configuration not stated), `CCC(=O)OC1(C(=O)COC(C)=O)CCC2C3CC(C)C4=CC(=O)C=CC4(C)C3C(O)CC21C` (configuration not stated) is lower in melting point: 162 to 163 °C for the first, 138 °C for the second.

Compared with `CSc1cc(C)cc(C)c1C=NO`, `Cc1cc(C)c(C)c(-c2cc3cnc(N)nc3nc2N)c1C` is higher in melting point: 115 to 117 °C for the first, 327 to 331 °C for the second.

First: CC(=O)c1ccc(-c2ccc(O)c(Br)c2)cc1
Second: O=C(O)c1ccc(-c2nc(-c3ccc(Br)cc3)cs2)cc1
The melting point of the first is lower: 166 to 170 °C for the first, > 300 °C for the second.

First: COc1ccnc(CSc2nc3ccc(F)cc3[nH]2)c1C
Second: COc1nc2cc(Cl)c(Cl)c(-n3c(CN(C)C)nnc3-c3cccnc3)c2nc1OC
The melting point of the first is lower: 128 °C for the first, 192 to 194 °C for the second.

First: C#CCOc1ccc2c(c1)Sc1cc([N+](=O)[O-])ccc1N2
Second: Cc1cc(N(C)N)nnc1-c1ccc(C#N)cc1
The melting point of the first is higher: 226 to 227 °C for the first, 149 to 152 °C for the second.

Compared with `Clc1cccc2c1c(Cl)nc1c(-c3nc(C4CC4)no3)ncn12`, `CC1(C)COc2cc(Cl)c(Cl)cc2C(O)(c2cccnc2)C1` (configuration not stated) is lower in melting point: 238 to 240 °C for the first, 166 °C for the second.

Compared with `CC1CC(=O)NN=C1c1ccc(N2CCN(CCCCN)CC2)c([N+](=O)[O-])c1` (configuration not stated), `COc1cc2nc(N3CCN(c4ccnc(Oc5ccccc5)n4)CC3)nc(N)c2cc1OC` is higher in melting point: 145 to 146 °C for the first, 253 to 254 °C for the second.

First: C/C(=C\c1ccncc1)c1ccc2c(c1)C(C)(C)CCC2(C)C
Second: CC(O)=C1C(c2ccccc2)=C(c2ccc(S(C)(=O)=O)cc2)C1(Cl)Cl
The melting point of the first is lower: 84 to 85 °C for the first, 194 to 195 °C for the second.

Compared with `O=C(O)C1=Cc2cc(F)cc(F)c2OC1C(F)(F)F` (configuration not stated), `COc1c(C)c(C)c(OC)c(CC=C(C)CO)c1C` is lower in melting point: 207 to 211 °C for the first, 85 to 86 °C for the second.
